Series [1] is described as follows: Animal pharmacokinetic study in rats, single gavage. To be noted: rat, po; male rats, single gavage 5 mg/kg, plasma. Type of series: in vivo. The procedure:
Three healthy adult male rats from Beijing Vital River Experimental animal Technology Co. Ltd were used for animal pharmacokinetic experiments. The compounds were suspended in 20% sulfobutyl ether-β-cyclodextrin (W/W/V) at a concentration of 1 mg/mL at a dosing volume of 5 mL/kg by single gavage at a dose of 5 mg/kg. Animals were fasted overnight before the experiment, from 10 hours before the administration to 4 hours after the administration. Blood was collected at 0.25, 0.5, 1, 2, 4, 6, 8, and 24 hours after the administration. The animals were anesthetized with isoflurane. About 0.4 mL of whole blood was collected from the orbital venous plexus using a glass blood collection tube and placed in a heparin anticoagulant tube. The sample was centrifuged at 4200 rpm for 5 min at 4° C. The plasma was transferred to a centrifuge tube and stored at −80° C. for later analysis. The plasma sample analysis used the acetonitrile protein precipitation method to extract the compound to be tested and internal standard (Warfarin or Propranolol) from rat plasma, and the extraction solution was analyzed by LC/MS/MS. The plasma concentration-time data of individual animals measured were analyzed using anon-compartmental model using the WinNonlin (version 5.2.1; Pharsight company) software, and the following pharmacokinetic parameters were obtained: maximum (peak) plasma drug concentration Cmax; Time to max Tmax; the area under the curve AUC0-inf of blood drug concentration-time from half-life T½ and extrapolation to infinite time.

The subject of series [2] is multiple myeloma cells U266B1. The series is described as follows: In-vivo assay II: subcutaneous xenograft model of multiple myeloma cells U266B1 in mice. To be noted: NOG mice. The protocol:
Evaluation assay of LMP7 Inhibitors in a subcutaneous xenograft model of multiple myeloma cells U266B1 in mice
Female NOG mice, week old: 6-8 weeks old, certificate No: SCXK(Jing) 2021-0006, purchased from Beijing Vital River Experimental Animal Technology Co. Ltd.
The specific method was that mice were housed in an SPF environment. Every 5 mice were housed in 1 cage. Animals were free to drink and eat and were adaptively raised for one week. Laboratory conditions: room temperature 18-24° C., relative humidity 40%-70%, ventilated with a ventilation fan, natural light source for 12 hours per day. Cages, bedding, drinking water, and feed were replaced twice a week, and the replaced cages and drinking water bottles were cleaned and then sterilized by steam under high pressure. Cages, room walls, and floors were cleaned twice a week with 84-disinfectant or bromogeramine.
U266b1 (China Center for Type Culture Collection, College of Life Sciences at Wuhan University) cells were cultured using RPMI-1640 medium supplemented with 20% fetal bovine serum and 1% Penicillin-Streptomycin at 37° C. in an atmosphere of 5% CO2 in the air. Cells were routinely sub-cultured twice weekly, and cells grown in the exponential growth phase were harvested and counted. Cell suspensions were mixed well at 1:1 in Matrigel™ (Corning Matrigel™ Normal Basement Membrane) for tumor cell inoculation.
Each mouse was subcutaneously injected with 0.1 ml of PBS-suspended U266B1 cell suspension (containing 1.0×10^7 cells, 50% Matrigel) at the axillary sites on both sides to establish a subcutaneous transplanted tumor model of multiple myeloma cells U266B1 in mice. […] Tumor diameter and body weight were measured 3 times per week during the experiment. […]
The study endpoints were tumor growth inhibition, maximum tumor burden (individual tumor size equal to 10% of body weight), and weight loss greater than 20% of body weight at the start of treatment. The tumor volume was calculated as V=0.5×a×b^2, where V is the tumor volume and a and b are the length and width of the tumor, respectively. […]

Where [3] appears, read: 0.3 mg/kg orally once daily, Day 14.

With `O=C(Nc1cnccn1)C(=O)N[C@@H](Cc1coc2ccccc12)B(O)O` [Ex. 9, (R)-(2-(benzofuran-3-yl)-1-(2-oxo-2-(pyrazin-2-ylamino)acetamido)ethyl) boronic acid], in series [1], the AUC(0-inf) turned out to be 38600 ng·h/mL, the concentration peaked (Cmax) at 3880 ng/mL, the Tmax was 2.67 h and the half-life is 5.58 h. Moreover, the “animal death or weight loss caused by the compound” value in series [2] (0.3 mg/kg orally once daily for 14 days) was “no animal death or weight loss”. In addition, in series [2] (setting [3]), the T/C turned out to be 9.76% and the “TGI (tumor growth inhibition rate)” value amounted to 104.45%.

`Cc1cnc(NC(=O)C(=O)N[C@@H](Cc2coc3ccccc23)B(O)O)s1` [Ex. 32, (R)-(2-(benzofuran-3-yl)-1-(2-oxo-2-((5-methylthiazol-2-yl)amino)acetamido)ethyl)boronic acid]: in series [1], the AUC(0-inf) came to 22200 ng·h/mL, the peak level (Cmax) was 1090 ng/mL, the Tmax stood at 0.67 h and the half-life is 25.3 h.

Consider `O=C(Nc1cc(Cl)ccn1)C(=O)N[C@@H](Cc1coc2ccccc12)B(O)O` [Ex. 49, (R)-(2-(benzofuran-3-yl)-1-(2-oxo-2-((4-chloropyridin-2-yl)amino)acetamido)ethyl)boronic acid], for which, in series [1], the AUC(0-inf) worked out at 25400 ng·h/mL, the Cmax is 1430 ng/mL, the Tmax turned out to be 0.92 h and the half-life is 16.4 h.

Consider `O=C(Nc1nc2ccccc2s1)C(=O)N[C@@H](Cc1coc2ccccc12)B(O)O` [Ex. 27, (R)-(2-(benzofuran-3-yl)-1-(2-oxo-2-((benzo[d]thiazol-2-yl)amino)acetamido)ethyl)boronic acid], for which, in series [1], the AUC(0-inf) stood at 24200 ng·h/mL, the Cmax came out at 1910 ng/mL, the Tmax was determined as 3.33 h and the half-life is 5.17 h.

Turning to `O=C(Nc1ccccn1)C(=O)N[C@@H](Cc1coc2ccccc12)B(O)O` [Ex. 12], in series [1], the AUC(0-inf) stood at 26500 ng·h/mL, the peak concentration (Cmax) was 3930 ng/mL, the Tmax was determined as 0.58 h and the half-life was 14.7 h.

For orientation: AUC(0-inf) means the area under the concentration-time curve extrapolated to infinity. In general, Cmax refers to the highest concentration seen after dosing. What is called Tmax is the time at which the peak concentration occurs. The term half-life denotes the time needed for the level to fall by half in the phase considered. High values mean slow decline, low ones rapid decline. The T/C is the result in the treated group divided by that in the control group, in per cent.

The values are drawn from patent US20240425529A1, “BORIC ACID DERIVATIVE” (SHOUYAO HOLDINGS (BEIJING) CO., LTD., priority 2021, published 2024).
